Consider 2 compounds from paper PMC3317778, “Development of a Unique Small Molecule Modulator of CXCR4” (PLoS ONE, 2012).

Test [1] has as its target T1, CXC chemokine receptor-4 (CXCR4) (Homo sapiens, UniProt P61073).
Test [2] concerns the target T1, CXC chemokine receptor-4 (CXCR4). Kind of test: competition with biotinylated TN14003 on MDA-MB-231 cells (immunofluorescence); supported by CXCL12-induced cAMP modulation assay in CXCR4-expressing cells (IC50 is for CXCR4/CXCL12 actions). It counts as cell-based.

T1 sequence (P61073 whole entry): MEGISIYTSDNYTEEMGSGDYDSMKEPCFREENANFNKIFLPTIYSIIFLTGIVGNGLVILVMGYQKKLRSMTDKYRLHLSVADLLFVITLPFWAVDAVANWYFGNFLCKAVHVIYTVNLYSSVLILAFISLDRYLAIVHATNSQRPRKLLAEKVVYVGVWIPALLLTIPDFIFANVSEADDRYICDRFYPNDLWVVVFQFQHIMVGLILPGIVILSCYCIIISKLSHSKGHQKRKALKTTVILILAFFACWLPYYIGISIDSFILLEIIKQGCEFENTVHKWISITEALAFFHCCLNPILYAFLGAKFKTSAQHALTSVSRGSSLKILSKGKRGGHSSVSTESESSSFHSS

As to `c1cc(CN2CCCNCCNCCCNCC2)ccc1CN1CCCNCCNCCCNCC1` [AMD3100], the “reference antagonist; block of CXCL12-induced cAMP reduction in U87CD4CXCR4 cell” value in test [1] is 1000 nM. In the case of `c1cnc(NCc2ccc(CNc3ncccn3)cc2)nc1` [MSX-122, N,N′-(1,4-phenylenebis(methylene))dipyrimidin-2-amine], the half-maximal inhibitory concentration (IC50) in test [2] was around 10 nM.

A word on the IC50: it is the point on the concentration scale where inhibition reaches its midpoint.
